The values below come from PMC4712933, “Development of Follicle-Stimulating Hormone Receptor Binding Probes to Image Ovarian Xenografts” (Journal of biotechnology & biomaterials, 2015).

Where a SMILES comes first, the peptide text is derived from it. The star is where a group is joined. 5FAM = O=C1OC2(c3ccc(O)cc3Oc3cc(O)ccc32)c2ccc(C(=O)*)cc21

Data set [1] has as its system FSHR. Conditions: cited from earlier work. From the text: FSHR belongs to G protein-coupled receptor and consists of a transmembrane and an extracellular domain, where the former is characterized by a seven helical repeats and the latter by multiple leucine-rich repeats. FSHR is expressed on normal ovarian epithelium, e.g., the fallopian tubal epithelium, and shares about 70% transmembrane domain sequence with other G protein-coupled receptors, such as L ...

In the next data set the test system is FSHR-rich Sertoli cells. Conditions: FSHR-rich Sertoli cells from Bovine Calf testes; ref 29 (Lee et al); read-out: EC50, radio-ligand binding assay; cited from earlier work.
A further data set deals with T1, FSHR on OVCAR-3 cells (Homo sapiens, UniProt P23945).
T1 construct: endogenous in cells; host or cells: OVCAR-3 cells
T1 sequence (P23945 18-695): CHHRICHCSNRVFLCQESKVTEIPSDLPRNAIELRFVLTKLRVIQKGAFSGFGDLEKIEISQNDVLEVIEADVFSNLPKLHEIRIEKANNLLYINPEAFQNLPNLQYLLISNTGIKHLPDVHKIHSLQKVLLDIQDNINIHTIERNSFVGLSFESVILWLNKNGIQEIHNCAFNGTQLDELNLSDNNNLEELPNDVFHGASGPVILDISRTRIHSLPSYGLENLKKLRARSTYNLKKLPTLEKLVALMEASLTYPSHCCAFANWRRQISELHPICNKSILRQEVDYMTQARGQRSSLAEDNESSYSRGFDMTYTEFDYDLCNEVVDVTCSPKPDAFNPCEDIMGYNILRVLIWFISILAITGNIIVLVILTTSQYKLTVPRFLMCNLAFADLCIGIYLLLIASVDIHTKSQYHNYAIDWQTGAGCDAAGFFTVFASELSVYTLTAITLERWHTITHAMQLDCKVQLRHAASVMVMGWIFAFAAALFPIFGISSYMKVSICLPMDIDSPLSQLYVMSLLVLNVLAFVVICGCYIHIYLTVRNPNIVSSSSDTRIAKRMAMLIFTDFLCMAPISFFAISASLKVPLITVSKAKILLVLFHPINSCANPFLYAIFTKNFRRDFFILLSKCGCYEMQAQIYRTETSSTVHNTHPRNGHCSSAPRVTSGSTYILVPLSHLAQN
In words: Flow cytometry binding of BI-10^FAM to OVCAR-3 cells. The protocol:
OVCAR-3 cells (generously provided by Dr. Mellisa Fishell of Indiana University School of Medicine) were chosen for in vitro binding experiment due to its high level of FSHR expression. For the first 2–3 passages, the cells were plated in […] flasks using RPMI medium (supplemented with 5 μM Insulin (Sigma), 20% FBS (Hyclone), Sodium private (GIBCO), and Pen Strep (GIBCO)), and placed in an incubator (5% CO2 at a temperature of 37°C incubator) to maintain viability. For peptide binding experiments, cells were plated in six-well plates with the medium and environment conditions as previously described. Medium was changed every 2–3 days until cells reached more than 90% confluency. […] These samples were ready for imaging within the flow cytometer. […]
Each sample of OVCAR-3 cells was placed within the flow cytometer (Beckman Coulter FC500) and the FITC fluorescent intensity from the BI-10^FAM peptide bound to the OVCAR-3 cells were acquired. A TOPO-3 dye (Sigma) in 1 nM concentration was used to acquire the fluorescence from only viable cells in a two-color flow cytometry assay. Ten thousand cells were counted and the fluorescence measured in each sample. […] The EC50 value (binding affinity) and receptor saturation intensity were calculated using a nonlinear regression analysis using GraphPad Prism fitting algorithm (GraphPad Software, Inc.). […]
A general note: In flow cytometry, cells or beads pass a laser one at a time.

Data set [2] deals with FSHR. As to conditions: low doses; cited from earlier work. The text has this: Their small effective hydrodynamic diameter, high washout rates, and rapid renal filtration are highly valued for in vivo imaging, where an optimal tumor-to-reference tissue ratio (TRR) can be quickly reached. This was de ...

For TENLEPNGEGNH2 [BI-10], the “binding to FSHR, in words” value in the data set on FSHR [1] (functional radio ligand receptor assay, synthetic BI-10) was “specifically binds to FSHR”; on FSHR on OVCAR-3 cells (BI-10 binding curves), “highly specific but low in affinity”. The “inhibition of FSH-stimulated estradiol and cAMP synthesis, in words” value in the data set with FSHR [1] (synthetic BI-10 peptide, high concentrations) was “inhibits FSH-stimulated estradiol and secondary messenger cAMP synthesis at high concentrations”. In addition, the EC50 with FSHR-rich Sertoli cells was around 300 µM.
For the compound `CC(C)C[C@H](NC(=O)[C@H](CC(N)=O)NC(=O)[C@H](CCC(=O)O)NC(=O)[C@@H](NC(=O)c1ccc2c(c1)C(=O)OC21c2ccc(O)cc2Oc2cc(O)ccc21)[C@@H](C)O)C(=O)N[C@@H](CCC(=O)O)C(=O)N1CCC[C@H]1C(=O)N[C@@H](CC(N)=O)C(=O)NCC(=O)N[C@@H](CCC(=O)O)C(=O)NCC(N)=O` [BI-10^FAM] (5FAM-TENLEPNGEG-NH2), the physiologic effects entry in the data set on FSHR [2] is given as “negligible physiologic effects when used in low doses”. The EC50 at FSHR on OVCAR-3 cells (OVCAR-3 cells, BI-10^FAM, 30 min incubation, 37°C incubator, 1.0-500 μM, wash with PBS, 5 mM EDTA detachment, median FITC fluorescence, flow cytometry, TOPO-3 viable gate, 10,000 cells, nonlinear regression, R^2=0.93, average of three measurements (Figure 1: n=5), read-out: EC50 (binding affinity, dose response curve)) stood at 160 µM.

As usually defined, the EC50 is the concentration needed to bring the measured effect to its halfway point.
